Tested on: HSSY-II tumor spheroid viability
Test: Anticancer human tumor HSSY-II cell line growth inhibition;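 further: spheroids exposed to compounds for seven days before reading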;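 on viability, T/C: percent of DMSO vehicle control viability so 100% = untreated level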
Conditions: spheroids with HUVEC and MSC; for IC50: curve of first compound; for viability, T/C: stronger effect = lower value
Outline: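 Complex tumor spheroids combined malignant cells with endothelial cells and mesenchymal stem cells. DNA-damaging drugs and DNA repair inhibitors were tested alone and in combination, at half-log dilutions down from clinical Cmax (top 10 microM if Cmax unknown), 0.25% DMSO final.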

[1] = second compound 1 µM, first compound 0.00949 µM
[2] = second compound 1 µM, first compound 0.03 µM
[3] = second compound 1 µM, first compound 0.0949 µM
[4] = second compound 1 µM, first compound 0.3 µM
[5] = second compound 1 µM, first compound 0.949 µM
[6] = second compound 1 µM, first compound 3 µM
[7] = second compound 3.16 µM, first compound 0.00949 µM
[8] = second compound 3.16 µM, first compound 0.03 µM
[9] = second compound 3.16 µM, first compound 0.0949 µM
[10] = second compound 3.16 µM, first compound 0.3 µM
[11] = second compound 3.16 µM, first compound 0.949 µM
[12] = second compound 3.16 µM, first compound 3 µM
[13] = second compound 10 µM, first compound 0.00949 µM
[14] = second compound 10 µM, first compound 0.03 µM
[15] = second compound 10 µM, first compound 0.0949 µM
[16] = second compound 10 µM, first compound 0.3 µM
[17] = second compound 10 µM, first compound 0.949 µM
[18] = second compound 10 µM, first compound 3 µM
[19] = second compound 31.6 µM, first compound 0.00949 µM
[20] = second compound 31.6 µM, first compound 0.03 µM
[21] = second compound 31.6 µM, first compound 0.0949 µM
[22] = second compound 31.6 µM, first compound 0.3 µM
[23] = second compound 31.6 µM, first compound 0.949 µM
[24] = second compound 31.6 µM, first compound 3 µM
[25] = second compound 100 µM, first compound 0.00949 µM
[26] = second compound 100 µM, first compound 0.03 µM
[27] = second compound 100 µM, first compound 0.0949 µM
[28] = second compound 100 µM, first compound 0.3 µM
[29] = second compound 100 µM, first compound 0.949 µM
[30] = second compound 100 µM, first compound 3 µM

Structure (SMILES) | IC50 (second compound 1 µM) [µM] | IC50 (second compound 3.16 µM) [µM] | IC50 (second compound 10 µM) [µM] | IC50 (second compound 31.6 µM) [µM] | IC50 (second compound 100 µM) [µM] | viability, T/C [3] [%] | viability, T/C [4] [%] | viability, T/C [5] [%] | viability, T/C [6] [%] | viability, T/C [9] [%] | viability, T/C [10] [%] | viability, T/C [11] [%] | viability, T/C [12] [%] | viability, T/C [15] [%] | viability, T/C [16] [%] | viability, T/C [17] [%] | viability, T/C [18] [%] | viability, T/C [21] [%] | viability, T/C [22] [%] | viability, T/C [23] [%] | also measured
CNCc1ccc(-c2cc(-c3nc(-c4ccc(S(=O)(=O)C(C)C)cc4)cnc3N)on2)cc1 + Cn1nnc2c(C(N)=O)ncn2c1=O | 0.0441 | 0.0499 | 0.046 | 0.047 | 0.0427 | 9.33 | 4.77 | 1.51 | 0.14 | 10.3 | 4.71 | 1.26 | 0.11 | 8.12 | 5.47 | 1.58 | 0.12 | 10.7 | 4.8 | 2.03 | viability, T/C [1]: 96.8%; viability, T/C [2]: 70.5%; viability, T/C [7]: 98.4%; viability, T/C [8]: 81.4%; viability, T/C [13]: 102%; viability, T/C [14]: 74.7%; viability, T/C [19]: 100%; viability, T/C [20]: 75%; viability, T/C [24]: 0.15%; viability, T/C [25]: 91.3%; viability, T/C [26]: 69.4%; viability, T/C [27]: 5.96%; viability, T/C [28]: 4.82%; viability, T/C [29]: 1.42%; viability, T/C [30]: 0.2%
Cn1ncnc1[C@H]1c2n[nH]c(=O)c3cc(F)cc(c23)N[C@@H]1c1ccc(F)cc1 + Cn1nnc2c(C(N)=O)ncn2c1=O | 0.0881 | 0.0417 | 0.0211 | < 0.00949 | < 0.00949 | 52.6 | 20.8 | 10.8 | 6.39 | 45.6 | 15.5 | 9.89 | 8.35 | 15.4 | 10.5 | 8.29 | 6.47 | 9.75 | 8.55 | 7.6 | viability, T/C [1]: 86.8%; viability, T/C [2]: 68.6%; viability, T/C [7]: 83%; viability, T/C [8]: 50.1%; viability, T/C [13]: 70.3%; viability, T/C [14]: 41.2%; viability, T/C [19]: 20.1%; viability, T/C [20]: 10.9%; viability, T/C [24]: 4.67%; viability, T/C [25]: 8.89%; viability, T/C [26]: 7.52%; viability, T/C [27]: 8.61%; viability, T/C [28]: 7.59%; viability, T/C [29]: 6.58%; viability, T/C [30]: 5.25%
O=C(c1cc(Cc2n[nH]c(=O)c3ccccc23)ccc1F)N1CCN(C(=O)C2CC2)CC1 + Cn1nnc2c(C(N)=O)ncn2c1=O | 6.1 | 3.28 | 2.48 | 0.751 | < 0.0949 | 98 | 93.6 | 84.2 | 63.6 | 94.9 | 92.5 | 81.9 | 54.8 | 99.6 | 93.3 | 81.3 | 46.5 | 95.5 | 78.5 | 44 | viability, T/C (second compound 1 µM, first compound 9.49 µM): 23.9%; viability, T/C (second compound 1 µM, first compound 30 µM): 59.1%; viability, T/C (second compound 3.16 µM, first compound 9.49 µM): 20.1%; viability, T/C (second compound 3.16 µM, first compound 30 µM): 43.3%; viability, T/C (second compound 10 µM, first compound 9.49 µM): 12%; viability, T/C (second compound 10 µM, first compound 30 µM): 56.4%; viability, T/C [24]: 14%; viability, T/C (second compound 31.6 µM, first compound 9.49 µM): 11.3%; viability, T/C (second compound 31.6 µM, first compound 30 µM): 9.62%; viability, T/C [27]: 43.4%; viability, T/C [28]: 25.2%; viability, T/C [29]: 10.7%; viability, T/C [30]: 10.1%; viability, T/C (second compound 100 µM, first compound 9.49 µM): 8.27%; viability, T/C (second compound 100 µM, first compound 30 µM): 9.08%

Source: PubChem BioAssay AID1845204 (Molecular Pharmacology Branch, DTP, NCI, 2023)
